How the values were obtained:
[1] = tested on: Mus musculus; assay: Area under the antinociceptive effect time curve after 2 mg/kg administration in mice.; assay type: functional
[2] = tested on: Mus musculus; assay: Area under the antinociceptive effect time curve after 4 mg/kg administration in mice.; assay type: functional
[3] = target: T1, Mu-type opioid receptor (Rattus norvegicus, UniProt P33535); assay: mu-1 receptor binding affinity in rat brain by 3H [d-Ala2, d-Leu5] enkephalin displacement.; assay type: tissue-based
[4] = target: T1, Mu-type opioid receptor; assay: mu-2 receptor binding affinity in rat brain by 3H [d-Ala2, (N-Me)Phe4, Gly5-ol] enkephalin displacement.; assay type: tissue-based
[5] = tested on: Mus musculus; assay: Area under the antinociceptive effect time curve was determined after administration of 8 mg/kg in mice; assay type: functional

T1 sequence (P33535 whole entry): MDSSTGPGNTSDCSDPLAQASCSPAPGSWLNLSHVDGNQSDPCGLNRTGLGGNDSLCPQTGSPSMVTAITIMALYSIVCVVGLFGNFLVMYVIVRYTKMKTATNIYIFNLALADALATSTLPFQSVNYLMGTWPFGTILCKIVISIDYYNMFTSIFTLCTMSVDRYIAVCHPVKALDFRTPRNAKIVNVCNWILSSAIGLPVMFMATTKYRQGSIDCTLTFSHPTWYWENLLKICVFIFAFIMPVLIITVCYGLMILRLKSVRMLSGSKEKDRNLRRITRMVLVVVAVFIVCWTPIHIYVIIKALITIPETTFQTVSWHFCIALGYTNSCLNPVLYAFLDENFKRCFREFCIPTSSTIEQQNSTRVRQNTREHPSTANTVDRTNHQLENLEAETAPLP

CN1CC[C@]23c4c5ccc(O)c4O[C@H]2[C@@H](OC2OC(CO)[C@H](O)C(O)C2O)C=C[C@H]3[C@H]1C5 (some centres undefined)
AUEC [1]: 1130 %·min
AUEC [2]: 2283 A% min-1
Ki [3]: 0.28 nM
Ki [4]: 3.2 nM

CN1CCC23c4c5ccc(O)c4O[C@H]2[C@@H](O[C@@H]2O[C@H](C(=O)O)[C@@H](O)[C@H]2O)C=C[C@H]3[C@H]1C5
AUEC [1]: -56 %·min
AUEC [5]: 596 A% min-1
AUEC [2]: 797 A% min-1
Ki [3]: 1.6 nM
Ki [4]: 44 nM

O=C(O)CN1CC[C@]23c4c5ccc(O)c4O[C@H]2[C@@H](O[C@@H]2O[C@@H](C(=O)O)[C@@H](O)[C@H](O)[C@@H]2O)C=C[C@H]3[C@H]1C5
AUEC [1]: 266 %·min
AUEC [5]: 322 A% min-1
AUEC [2]: 45 A% min-1
Ki [3]: 33 nM
Ki [4]: 1620 nM

C=CCN1CC[C@]23c4c5ccc(O)c4O[C@H]2[C@@H](O[C@@H]2O[C@@H](C(=O)O)[C@@H](O)[C@H](O)[C@@H]2O)C=C[C@H]3[C@H]1C5
AUEC [1]: 221 %·min
AUEC [5]: 492 A% min-1
AUEC [2]: 147 A% min-1
Ki [3]: 0.2 nM
Ki [4]: 10 nM

CN1CCC23c4c5ccc(O)c4O[C@H]2[C@@H](OC2OC(CO)[C@H](O)C(O)C2O)C=C[C@H]3[C@H]1C5 (some centres undefined)
AUEC [1]: 682 %·min
AUEC [5]: 2397 A% min-1
AUEC [2]: 686 A% min-1
Ki [3]: 1.2 nM
Ki [4]: 4.8 nM

O=C(O)[C@@H]1O[C@@H](O[C@H]2C=C[C@H]3[C@H]4Cc5ccc(O)c6c5C3(CCN4CC3CC3)[C@H]2O6)[C@@H](O)[C@@H](O)[C@@H]1O
AUEC [1]: 126 %·min
AUEC [5]: 266 A% min-1
AUEC [2]: 599 A% min-1
Ki [3]: 0.06 nM
Ki [4]: 3.5 nM

COc1ccc2c3c1O[C@H]1[C@@H](O[C@@H]4O[C@@H](C(=O)O)[C@@H](O)[C@H](O)[C@@H]4O)C=C[C@H]4[C@@H](C2)N(C)CC[C@@]341
Ki [3]: 85 nM
Ki [4]: 5700 nM

CN1CC[C@]23c4c5ccc(O)c4O[C@H]2[C@@H](O)C=C[C@H]3[C@H]1C5 [MORPHINE]
AUEC [2]: 1987 A% min-1

CN1CCC23c4c5ccc(O)c4O[C@H]2[C@@H](OC2OC(C(=O)O)=CC(O)C2O)C=C[C@H]3[C@H]1C5 (some centres undefined)
AUEC [1]: 651 %·min
AUEC [5]: 701 A% min-1
AUEC [2]: 759 A% min-1
Ki [3]: 1.4 nM
Ki [4]: 48 nM

CN1CCC23c4c5ccc(O)c4O[C@H]2[C@@H](OC2C=CC(O)C(C(=O)O)O2)C=C[C@H]3[C@H]1C5 (some centres undefined)
AUEC [1]: 491 %·min
Activity [5]: 851 A% min-1
AUEC [2]: 130 A% min-1
Ki [3]: 3.2 nM
Ki [4]: 178 nM

CN1CCC23c4c5ccc(O)c4O[C@H]2[C@@H](O[C@@H]2O[C@@H](C(=O)O)[C@@H](O)[C@H](O)[C@@H]2O)CC[C@H]3[C@H]1C5
AUEC [1]: 1667 %·min
AUEC [2]: 1885 A% min-1
Ki [3]: 0.25 nM
Ki [4]: 5.7 nM

CN1CC[C@]23c4c5ccc(O)c4O[C@H]2[C@@H](O[C@@H]2O[C@H](C(=O)O)[C@@H](O)[C@H](O)[C@H]2O)C=C[C@H]3[C@H]1C5 [MORPHINE GLUCURONIDE]
AUEC [2]: 1359 A% min-1
Ki [3]: 1.5 nM
Ki [4]: 26 nM

CN1CC[C@]23c4c5ccc(O)c4O[C@H]2[C@@H](OC2O[C@@H](C(=O)O)CC(O)C2O)C=C[C@H]3[C@H]1C5 (some centres undefined)
AUEC [1]: 18 %·min
Activity [5]: 1046 A% min-1
AUEC [2]: 365 A% min-1
Ki [3]: 1.9 nM
Ki [4]: 57 nM

CC1OC(O[C@H]2C=C[C@H]3[C@H]4Cc5ccc(O)c6c5C3(CCN4C)[C@H]2O6)C(O)C(O)C1O (some centres undefined)
AUEC [1]: 421 %·min
AUEC [2]: 250 A% min-1
Ki [3]: 0.17 nM
Ki [4]: 6.2 nM

CN1CC[C@]23c4c5ccc(O)c4O[C@H]2[C@@H](O[C@@H]2O[C@H](C(=O)O)C[C@H](O)[C@@H]2O)C=C[C@H]3[C@H]1C5
AUEC [1]: 35 %·min
AUEC [5]: 380 A% min-1
AUEC [2]: 80 A% min-1
Ki [3]: 0.6 nM
Ki [4]: 172 nM

CN1CCC23c4c5ccc(O)c4O[C@H]2[C@@H](O[C@@H]2O[C@@H](CO)[C@@H](O)[C@H](O)[C@@H]2O)CC[C@H]3[C@H]1C5
AUEC [1]: 1490 %·min
AUEC [2]: 2701 A% min-1
Ki [3]: 0.21 nM
Ki [4]: 2.5 nM

O=C(O)[C@@H]1O[C@@H](O[C@H]2CC[C@H]3[C@H]4Cc5ccc(O)c6c5[C@@]3(CCN4)[C@H]2O6)[C@@H](O)[C@@H](O)[C@@H]1O
AUEC [1]: 2196 %·min
AUEC [2]: 2461 A% min-1

CN1CCC23c4c5ccc(O)c4O[C@H]2[C@@H](OC2CCCC(C(=O)O)O2)C=C[C@H]3[C@H]1C5 (some centres undefined)
AUEC [1]: 230 %·min
AUEC [5]: 478 A% min-1
AUEC [2]: 26 A% min-1
Ki [3]: 0.51 nM
Ki [4]: 168 nM

O=C(O)[C@@H]1O[C@@H](O[C@H]2C=C[C@H]3[C@H]4Cc5ccc(O)c6c5[C@@]3(CCN4)[C@H]2O6)[C@@H](O)[C@@H](O)[C@@H]1O
AUEC [1]: 393 %·min
AUEC [5]: 2487 A% min-1
AUEC [2]: 1614 A% min-1
Ki [3]: 0.98 nM
Ki [4]: 37 nM
